Test results taken from patent publication US11980633B2, “Method for treating cancer using a combination of DNA-damaging agents and DNA-PK inhibitors” (Vertex Pharmaceuticals Incorporated, priority 2016, dated 2024).

Tests used:
[1] = tested on: primary human ovarian tumors (dissociated cells); assay: Tumor Chemosensitivity Assay (TCA): Compound B-2 with doxorubicin, primary ovarian tumors, viability after 6 days, Bliss; type: cell-based; design: Average Bliss score: scale not given here
Description: Specifically, one study described the combination of Compound B-2 and doxorubicin hydrochloride. In this study, a panel of primary human ovarian and endometrial tumors was dissociated and treated with Compound B-2 to determine the effectiveness of this selective DNA-PK inhibitor to enhance the activity of doxorubicin.
(§1) In both studies, cell viability was assessed after 6 days in culture. Statistical analysis of the combination matrix was performed to assess whether synergy, additivity, or antagonism of the combination treatments were observed.
(§2) Materials: Primary patient samples (See Tables 16 and 17, below) were excised from mice when they reached 500 mg to 1000 mg in size and processed immediately, or after overnight shipment. Tumors were serially passaged by subcutaneous implantation of 50 mg to 150 mg fragments into the flanks of immunocompromised (nude) mice. Tumors were used within the first 5 or 7 passages.
(§3) Tumor Chemosensitivity Assay (TCA): Primary tumor samples were grown and serially passaged in immunocompromised mice. Tumors were mechanically dissociated into small fragments (1 mm to 2 mm) with scalpels in phosphate buffered saline (PBS or RPMI) and centrifuged at 200×g for 5 minutes at room temperature in 50 mL centrifuge tubes. Samples were resuspended in 10 mL of cell dissociation reagent and enzymatically digested with mechanical agitation for 1 to 3 hours at 37° C., 5% CO2 to a single cell suspension. Ten mL of complete RPMI-1640 media was added to the cell mixture and pipetted up and down 4 to 5 times. The mixture was then passed through a 70 μm or 100 μm mesh strainer to remove undigested tumor. The filtrate was then centrifuged 200×g for 5 minutes at room temperature and resuspended in 20 mL complete RPMI-1640. This cell suspension was slowly layered onto 20 mL of room temperature Histopaque and centrifuged at 400×g for 15 minutes at room temperature without a brake. The interface was transferred to a new 50 mL centrifuge tube and 15 mL of complete RPMI-1640 was added. This suspension was centrifuged at 200×g at room temperature, and the resulting pellet was resuspended in 10 mL of complete PC-1 media, except for pancreatic tumors in which case Pancreatic Medium was used. Cells were diluted in Trypan blue, and viable cells that excluded the dye were counted. Only the larger, tumor cells were included in the cell count. Cells were diluted in complete PC-1 or Pancreatic media, as appropriate for the cells, and were plated at 15,000 to 20,000 cells per well in 100-135 μL in ultra-low attachment U-bottom plates.
(§4) Compound Addition: For these studies, a 10 mM stock of the DNA-PK inhibitor (Compound B-1 or Compound B-2) was made in DMSO and used to add to cells from most tumors with HP D300 Digital Dispenser (Tecan US, Morrisville, NC, USA), or diluted into the appropriate media (PC-1 or pancreatic media) as a 5-10× stock and added to cells (OVX001 and ENX001, 005). PC-1, pancreatic media, and chemotherapeutics were also added so that final well volume was 150 μL. Doxorubicin was made as DMSO stock of 1 or 10 mM and added to cells for most tumors with HP D300 Digital Dispenser, or diluted into PC-1 as 5-10× stock and added to cells (OVX001 and ENX001, 005). Cisplatin (cis-diammine platinum(II), dichloride) was prepared fresh to 10 mM in warm (60° C.) distilled water and diluted in PC-1 as a 5-10× stock. […] Different starting concentrations, dose ranges, and number of doses were used for each experiment based on the response data available at the time.
For doxorubicin hydrochloride experiments, combinations with Compound B-2 at all concentrations were run in triplicate. A 6×3 matrix was designed on each plate: 0.73 μM and 2.2 μM Compound B-2, or 0.37 μM and 4.4 μM Compound B-2 on some tumors where additional cells were available, plus no treatment control, in 3 columns each of 6 wells. Doxorubicin hydrochloride (plus ‘no treatment’ control) was added to 9 wells in rows of this plate. […]

[2] = tested on: primary human NSCLC tumors (dissociated cells); assay: TCA: Compound B-1 with radiation (1-16 Gy), primary NSCLC tumors; type: cell-based; design: Average Bliss score: scale not given here
Description: as §1, §2, §3, §4
In radiation experiments, a range of 1-16 Gy was administered using a cesium-137 source (GammaCell 40 Exactor, MDS Nordion, Ontario, Canada). These experiments were designed as a 6×5 matrix in triplicate. Each point of a 4-point concentration range of 0.15, 0.73, 1.5 and 2.2 μM Compound B-1 plus a ‘no treatment’ control in triplicate were added to 6 individual plates. The matrix was then assembled by exposure of each plate to 0, 1, 2, 4, 8, or 16 Gy of radiation.
Cells were cultured at 37° C., 5% CO2, 95% air and 100% relative humidity.
Viability Determination: Six days after compound addition, 75 μL of CellTiterGlo (prepared according to manufacturer's protocol) was added to each well of the compound titration plates. […]

Compound: [2H]c1nc(C)nc([2H])c1-c1cc(NC[C@@H](C)c2cccc3c(C(=O)NC)ccnc23)ncn1 [Compound B-2]
- tumors that showed synergy or additivity ([1]; 11 ovarian tumors): 100%
- tumors that showed strong synergy ([1]; four of 11 ovarian tumors): 36%
- Average Bliss score ([1]; tumor CTG-0252 (Ovarian)): 14
- Synergy/Additivity/Antagonism ([1]; tumor CTG-0252 (Ovarian)): Strongly Synergistic (greater than 10 are considered strongly synergistic)
- Average Bliss score ([1]; tumor CTG-0253 (Ovarian)): 6
- Synergy/Additivity/Antagonism ([1]; tumor CTG-0253 (Ovarian)): Synergistic (greater than 5 are considered synergistic)
- Average Bliss score ([1]; tumor CTG-0258 (Ovarian)): 9
- Synergy/Additivity/Antagonism ([1]; tumor CTG-0258 (Ovarian)): Synergistic (greater than 5 are considered synergistic)
- Average Bliss score ([1]; tumor CTG-0486 (Ovarian)): 5
- Synergy/Additivity/Antagonism ([1]; tumor CTG-0486 (Ovarian)): Additive (Values between 5 and −5 are considered additive)
- Average Bliss score ([1]; tumor CTG-0791 (Ovarian)): 14
- Synergy/Additivity/Antagonism ([1]; tumor CTG-0791 (Ovarian)): Strongly Synergistic (greater than 10 are considered strongly synergistic)
- Average Bliss score ([1]; tumor CTG-0947 (Ovarian)): 10
- Synergy/Additivity/Antagonism ([1]; tumor CTG-0947 (Ovarian)): Synergistic (greater than 5 are considered synergistic)
- Average Bliss score ([1]; tumor CTG-0992 (Ovarian)): 8
- Synergy/Additivity/Antagonism ([1]; tumor CTG-0992 (Ovarian)): Synergistic (greater than 5 are considered synergistic)
- Average Bliss score ([1]; tumor CTG-1166 (Ovarian)): 8
- Synergy/Additivity/Antagonism ([1]; tumor CTG-1166 (Ovarian)): Synergistic (greater than 5 are considered synergistic)
- Average Bliss score ([1]; tumor CTG-1301 (Ovarian)): 8
- Synergy/Additivity/Antagonism ([1]; tumor CTG-1301 (Ovarian)): Synergistic (greater than 5 are considered synergistic)
- Average Bliss score ([1]; tumor CTG-1423 (Ovarian)): 12
- Synergy/Additivity/Antagonism ([1]; tumor CTG-1423 (Ovarian)): Strongly Synergistic (greater than 10 are considered strongly synergistic)
- Average Bliss score ([1]; tumor OVX001 (Ovarian)): 11
- Synergy/Additivity/Antagonism ([1]; tumor OVX001 (Ovarian)): Strongly Synergistic (greater than 10 are considered strongly synergistic)

Compound: CNC(=O)c1ccnc2c([C@H](C)CNc3cc(-c4cnc(C)nc4)ncn3)cccc12 [Compound B-1]
- tumors that showed synergy or additivity ([2]; 9 NSCLC tumors): 100%
- tumors that showed strong synergy ([2]; three of 9 NSCLC tumors): 33%
- Average Bliss score ([2]; tumor OD26131, Lung (NSCLC)): 12
- Synergy/Additivity/Antagonism ([2]; tumor OD26131, Lung (NSCLC)): Strongly Synergistic (greater than 10 are considered strongly synergistic)
- Average Bliss score ([2]; tumor OD26749, Lung (NSCLC)): 7
- Synergy/Additivity/Antagonism ([2]; tumor OD26749, Lung (NSCLC)): Synergistic (greater than 5 are considered synergistic)
- Average Bliss score ([2]; tumor OD29498, Lung (NSCLC)): 2
- Synergy/Additivity/Antagonism ([2]; tumor OD29498, Lung (NSCLC)): Additive (Values between 5 and −5 are considered additive)
- Average Bliss score ([2]; tumor OD33117, Lung (NSCLC)): 9
- Synergy/Additivity/Antagonism ([2]; tumor OD33117, Lung (NSCLC)): Synergistic (greater than 5 are considered synergistic)
- Average Bliss score ([2]; tumor OD33966, Lung (NSCLC)): 8
- Synergy/Additivity/Antagonism ([2]; tumor OD33966, Lung (NSCLC)): Synergistic (greater than 5 are considered synergistic)
- Average Bliss score ([2]; tumor OD35982, Lung (NSCLC)): 5
- Synergy/Additivity/Antagonism ([2]; tumor OD35982, Lung (NSCLC)): Additive (Values between 5 and −5 are considered additive)
- Average Bliss score ([2]; tumor OD36088, Lung (NSCLC)): 14
- Synergy/Additivity/Antagonism ([2]; tumor OD36088, Lung (NSCLC)): Strongly Synergistic (greater than 10 are considered strongly synergistic)
- Average Bliss score ([2]; tumor TS110310, Lung (NSCLC)): 16
- Synergy/Additivity/Antagonism ([2]; tumor TS110310, Lung (NSCLC)): Strongly Synergistic (greater than 10 are considered strongly synergistic)
- Average Bliss score ([2]; tumor YAS111611, Lung (NSCLC)): 1
- Synergy/Additivity/Antagonism ([2]; tumor YAS111611, Lung (NSCLC)): Additive (Values between 5 and −5 are considered additive)
